Laboratory results from ChEMBL document CHEMBL3244151, “9-hydroxy-1,2,3,4,5,6-hexahydro-1,5-methano-3-benzazocine derivatives as analgesics” (1977).

system: Mus musculus; assay: Analgesic activity in sc dosed albino dd mouse by tail pressure stimuli method; type: functional

Row | SMILES | ED50 [mg/kg]
1 | Br.CN1C[C@@H]2Cc3ccc(O)cc3[C@@](C)(C2)C1 | 8.4
2 | Br.C[C@H]1[C@H]2Cc3ccc(O)cc3[C@]1(C)CN(C)C2 | 28
3 | Br.C[C@@H]1[C@H]2Cc3ccc(O)cc3[C@]1(C)CN(C)C2 | 32.8
4 | CN1C[C@@H]2Cc3ccccc3[C@@](C)(C2)C1.Cl | > 50
5 | COc1ccc2c3c1O[C@H]1[C@@H](O)C=C[C@H]4[C@@H](C2)N(C)CC[C@@]341.COc1ccc2c3c1O[C@H]1[C@@H](O)C=C[C@H]4[C@@H](C2)N(C)CC[C@@]341.O.O=P(O)(O)O.O=P(O)(O)O [CODEINE PHOSPHATE] | 9.2
